Test results as given in US7115589B2, “Purine derivatives” (ARIAD Pharmaceuticals, Inc., priority 1999, dated 2006).

## CCOP(=O)(OCC)c1ccc(Nc2nc(C3CCCC3)nc3c2ncn3C(C)C)cc1
  melting point: 117 to 118 °C
